Literature values, collected in US8680078B2, “Stable ophthalmic formulations” (Medivis SRL, priority 2008, dated 2014).
Where two headings read alike, the source gives them in different places.

Assays:
[1] = pH of 5.6

maximum solubility [1]	Compound	time taken by the concentration of latanoprost to drop to 90% of an initial content (50° C.) [h]	time taken by the concentration of latanoprost to drop to 90% of an initial content (75° C.) [h]
about 50 mg/mL	CCN[C@H]1C[C@H](C)S(=O)(=O)c2sc(S(N)(=O)=O)cc21.Cl [dorzolamide hydrochloride]	–	–
–	CC(C)OC(=O)CCC/C=C\C[C@@H]1[C@@H](CC[C@@H](O)CCc2ccccc2)[C@H](O)C[C@@H]1O [Latanoprost, latanoprost]	198	32
